Measurements from US20060228313A1, “Method of cosmetic depigmentation care by applying at least one aurone” (Coletica, priority 2005, published 2006).

Experiments:
normal human melanocytes [1] = assay: Cytotoxicity on normal human melanocytes, PNPP determination; format: cell-based; details: 24 hours
Method: The cytotoxicity of the actives is studied on normal human melanocytes in a 24-well plate by a determination with PNPP(P-nitrophenyl phosphate), a substance which is converted into p-nitrophenol by the intracellular acid phosphatases of viable cells.
The absorbance of p-nitrophenol at 405 nm is directly proportional to the number of viable cells.
The actives are tested at 2 different concentrations (10^−4 M and 10^−5 M) and are added to the culture medium and are incubated at 37° C. for 24 hours. The determination with PNPP is carried out on a cell mat and the results are expressed as a percentage viability with respect to the negative control (non-treated wells).

Human tyrosinase = target: T1, Human tyrosinase (Homo sapiens, UniProt P14679); assay: Inhibition of human tyrosinase in a monolayer after application of the actives on normal human melanocytes; format: cell-based; details: for Inhibition of human tyrosinase after application on normal human melanocytes, percentage inhibition: 24 hours; for Inhibition of human tyrosinase on normal human melanocytes, result in words: model of Example 15
T1 construct: Normal human melanocytes (originating from abdominal plasty) are sown in a 24-well plate; endogenous in cells; host or cells: normal human melanocytes (abdominal plasty; donors of light, brown and black phototype)
T1 sequence (P14679 19-529): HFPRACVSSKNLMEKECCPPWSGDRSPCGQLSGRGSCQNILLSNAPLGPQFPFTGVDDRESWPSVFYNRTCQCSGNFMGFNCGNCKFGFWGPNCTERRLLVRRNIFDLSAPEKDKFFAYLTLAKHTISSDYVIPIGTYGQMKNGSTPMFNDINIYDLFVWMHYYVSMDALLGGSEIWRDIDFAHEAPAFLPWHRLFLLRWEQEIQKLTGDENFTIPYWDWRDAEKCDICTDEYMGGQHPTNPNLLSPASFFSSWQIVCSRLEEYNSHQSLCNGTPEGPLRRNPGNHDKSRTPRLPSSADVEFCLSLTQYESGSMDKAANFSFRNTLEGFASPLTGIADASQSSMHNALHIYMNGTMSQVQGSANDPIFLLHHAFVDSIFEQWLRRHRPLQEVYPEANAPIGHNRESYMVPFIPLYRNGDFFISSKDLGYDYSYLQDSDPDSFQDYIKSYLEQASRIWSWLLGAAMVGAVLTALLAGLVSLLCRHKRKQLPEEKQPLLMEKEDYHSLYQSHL
Method: Normal human melanocytes (originating from abdominal plasty) are sown in a 24-well plate at the rate of 80,000 cells per well. They are cultivated up to confluence and the actives are applied for 24 hours in the culture media. After 24 hours, the media are removed and the melanocytes are picked up by mechanical action. An extraction is made by heat shock and the supernatants are then recovered and then incubated with MBTH (Sigma) and L-Dopa (Sigma). The OD at 490 nm is measured after 30 minutes, and the inhibition is of the tyrosinase is calculated by comparing the OD at 490 nm to the protein level (measured in each culture well) of the test with respect to the ratio: OD 490 nm/concentration of protein of the negative control (non-treated control). […]

normal human melanocytes [2] = tested on: normal human melanocytes
From the text: A study is made with molecules known in the literature for their depigmenting activity. These molecules are applied to the model described in Example 15 so as to compare their efficiency with respect to the aurones is described above.

eye of rabbits = assay: Evaluation of the ocular irritation in the rabbit (OECD 405); format: in vivo; details: compound at 10% in a 0.5% xanthan gum, instilled pure, 0.1 ml
Method: (§1) Toxicology tests were carried out on the compound obtained according to Example 9 incorporated at 10% in a 0.5% xanthan gum, by an ocular evaluation in the rabbit, by the study of the absence of abnormal toxicity by single oral administration in the rat and by the study of the sensitizing power in the guinea pig.
The preparations described above were instilled pure and in one batch at the rate of 0.1 ml in the eye of three rabbits according to the method recommended by the directive of the OECD NO. 405 of Feb. 24, 1987, in relation to the study of “the acute irritant/corrosive effect on the eyes”.

guinea pig = assay: Skin sensitisation potential in the guinea pig, Magnusson and Kligmann maximization test (OECD 406); format: in vivo; details: compound at 10% in a 0.5% xanthan gum
Method: as §1
The preparations described are subjected to the maximization test described by Magnusson and Kligmann, a protocol which is in agreement with the directive line No. 406 of the OECD.

rat = assay: in vivo; details: both, po
Method: as §1
(§2) The preparations described were administered in one batch orally at the dose of 5 g/Kg of body weight, to 5 male rats and 5 female rats according to a protocol inspired from the Directive of the OECD No. 401 of Feb. 24, 1987 and adapted to cosmetic products. The LD0 and LD50 are found to be greater than 5,000 mg/Kg. The preparations tested are therefore not classed amongst the preparations which are dangerous by ingestion.

in vivo = details: both sexes, rat, po
Method: as §1, §2

Compound | Inhibition of human tyrosinase after application on normal human melanocytes, percentage inhibition (Human tyrosinase; 10^−5M) | Percentages viability on normal human melanocytes (normal human melanocytes [1]; 10^−4 M) | Percentages viability on normal human melanocytes (normal human melanocytes [1]; 10^−5 M) | further results
4,6-Dihydroxybenzofuran-3(2H)-one (R1=OH) and 6-Hydroxybenzofuran-3(2H)-one (R1=H) [Example 2] | 9.69% | 103.84% | 126.09% | 
O=C1O[C@H]([C@@H](O)CO)C(O)=C1OP(=O)(O)O [VitC PMG, reference compound] |  |  |  | cytotoxicity (normal human melanocytes [2]): no; Inhibition (%) of tyrosinase (Human tyrosinase; tested at 0.03%): 2.93%; Inhibition (%) of tyrosinase (Human tyrosinase; tested at 0.3%): 1.55%; Inhibition (%) of tyrosinase (Human tyrosinase; tested at 3%): −3.49%
O=C1/C(=C/c2ccc(O)cc2)Oc2cc(O)cc(O)c21 [Example 9b, (Z)-4,6-Dihydroxy-2-(4′-hydroxybenzylidene)benzofuran-3(2H)-one] |  | 90.31% | 128.39% | Inhibition of human tyrosinase on normal human melanocytes, result in words (Human tyrosinase): particularly active; Inhibition of human tyrosinase on normal human melanocytes, result in words (Human tyrosinase; listed as compound 9b): high efficiency
COc1ccc(/C=C2\Oc3cc(O)cc(O)c3C2=O)cc1 [Example 9, (Z)-4,6-Dihydroxy-2-(4-methoxybenzylidene)benzofuran-3(2H)-one] |  |  |  | Ocular irritation (eye of rabbits): non-irritant for the eyes; Skin sensitisation potential (guinea pig): non-sensitizing by contact with the skin; LD0 (rat): greater than 5,000 mg/Kg; LD50 (in vivo): > 5000 mg/kg
COc1cc(OC)c2c(c1)O/C(=C\c1ccc(C#N)cc1)C2=O [Example 5d, (Z)-2-(4′-cyanobenzylidene)-4,6-dimethoxybenzofuran-3(2H)-one] |  | 98.93% | 96.51% | 
COc1cc(OC)c2c(c1)O/C(=C\c1ccc(SC)cc1)C2=O [Example 5c, (Z)-4,6-dimethoxy-2-(4′-methylthiobenzylidene)benzofuran-3(2H)-one] |  | 80.08% | 136.13% | 
COc1cc(OC)c2c(c1)O/C(=C\c1ccc(O)cc1)C2=O [Example 5a, (Z)-4,6-dimethoxy-2-(4′-hydroxybenzylidene)benzofuran-3(2H)-one] |  | 104.53% | 90.87% | 
COc1cc(OC)c2c(c1)OCC2=O [Example 4, 4,6-Dimethoxybenzofuran-3(2H)-one] |  | 106.77% | 85.33% | 
COc1cc(OC)c2c(c1)O/C(=C\c1ccccc1)C2=O [Example 5, (Z)-2-Benzylidene-4,6-dimethoxybenzofuran-3(2H)-one] |  | 83.1% | 98.55% | 

Further lines, with some results ahead:

Inhibition of human tyrosinase after application on normal human melanocytes, percentage inhibition (Human tyrosinase; 10^−5M) | Compound | Percentages viability on normal human melanocytes (normal human melanocytes [1]; 10^−4 M) | Percentages viability on normal human melanocytes (normal human melanocytes [1]; 10^−5 M) | further results
0% | COc1cc(O)c2c(c1)O/C(=C\c1ccc(C#N)cc1)C2=O [Example 6d] | 85.65% | 119.36% | Inhibition of human tyrosinase after application on normal human melanocytes, percentage inhibition (Human tyrosinase; 10^−4M): 2.31%
14.19% | COc1cc(O)c2c(c1)O/C(=C\c1ccc(SC)cc1)C2=O [Example 6c] |  | 116.24% | 
4.52% | CCc1ccc(/C=C2\Oc3cc(O)cc(O)c3C2=O)cc1 [Example 7b] | 63.52% | 143.15% | 
